The values that follow come from patent publication US20220347175A1, “PYRIDAZINONE DERIVATIVE” (Sumitomo Dainippon Pharma Co., Ltd., priority 2018, published 2022).

In one assay the target is T1, human Nav1.1 (Homo sapiens, UniProt P35498).
T1 construct: host or cells: HEK293
The assay can be described thus: Amplification of Nav1.1-derived voltage-dependent sodium current (Nav1.1 current), cell line stably expressing human Nav1.1, automated patch clamp. The assay is classed as cell-based. The method in brief: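 Automated whole-cell voltage-clamp recordings used HEK293 cells stably expressing human Nav1.1, keeping only cells with >500 pA current, with currents evoked by ramp voltage. Compounds were applied in extracellular fluid with 1% DMSO, and amplification (%) was computed from peak current or AUC after versus before addition.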
For orientation: The patch-clamp technique gives a direct electrical read-out from membranes.

The target in the next assay is T2, human Nav1.5 (Homo sapiens, UniProt Q14524).
T2 construct: expressed in transfected cells; host or cells: CHO-K1 (T-REx System, ThermoFisher Scientific)
T2 sequence (Q14524 1-2015 isoform Q14524-2): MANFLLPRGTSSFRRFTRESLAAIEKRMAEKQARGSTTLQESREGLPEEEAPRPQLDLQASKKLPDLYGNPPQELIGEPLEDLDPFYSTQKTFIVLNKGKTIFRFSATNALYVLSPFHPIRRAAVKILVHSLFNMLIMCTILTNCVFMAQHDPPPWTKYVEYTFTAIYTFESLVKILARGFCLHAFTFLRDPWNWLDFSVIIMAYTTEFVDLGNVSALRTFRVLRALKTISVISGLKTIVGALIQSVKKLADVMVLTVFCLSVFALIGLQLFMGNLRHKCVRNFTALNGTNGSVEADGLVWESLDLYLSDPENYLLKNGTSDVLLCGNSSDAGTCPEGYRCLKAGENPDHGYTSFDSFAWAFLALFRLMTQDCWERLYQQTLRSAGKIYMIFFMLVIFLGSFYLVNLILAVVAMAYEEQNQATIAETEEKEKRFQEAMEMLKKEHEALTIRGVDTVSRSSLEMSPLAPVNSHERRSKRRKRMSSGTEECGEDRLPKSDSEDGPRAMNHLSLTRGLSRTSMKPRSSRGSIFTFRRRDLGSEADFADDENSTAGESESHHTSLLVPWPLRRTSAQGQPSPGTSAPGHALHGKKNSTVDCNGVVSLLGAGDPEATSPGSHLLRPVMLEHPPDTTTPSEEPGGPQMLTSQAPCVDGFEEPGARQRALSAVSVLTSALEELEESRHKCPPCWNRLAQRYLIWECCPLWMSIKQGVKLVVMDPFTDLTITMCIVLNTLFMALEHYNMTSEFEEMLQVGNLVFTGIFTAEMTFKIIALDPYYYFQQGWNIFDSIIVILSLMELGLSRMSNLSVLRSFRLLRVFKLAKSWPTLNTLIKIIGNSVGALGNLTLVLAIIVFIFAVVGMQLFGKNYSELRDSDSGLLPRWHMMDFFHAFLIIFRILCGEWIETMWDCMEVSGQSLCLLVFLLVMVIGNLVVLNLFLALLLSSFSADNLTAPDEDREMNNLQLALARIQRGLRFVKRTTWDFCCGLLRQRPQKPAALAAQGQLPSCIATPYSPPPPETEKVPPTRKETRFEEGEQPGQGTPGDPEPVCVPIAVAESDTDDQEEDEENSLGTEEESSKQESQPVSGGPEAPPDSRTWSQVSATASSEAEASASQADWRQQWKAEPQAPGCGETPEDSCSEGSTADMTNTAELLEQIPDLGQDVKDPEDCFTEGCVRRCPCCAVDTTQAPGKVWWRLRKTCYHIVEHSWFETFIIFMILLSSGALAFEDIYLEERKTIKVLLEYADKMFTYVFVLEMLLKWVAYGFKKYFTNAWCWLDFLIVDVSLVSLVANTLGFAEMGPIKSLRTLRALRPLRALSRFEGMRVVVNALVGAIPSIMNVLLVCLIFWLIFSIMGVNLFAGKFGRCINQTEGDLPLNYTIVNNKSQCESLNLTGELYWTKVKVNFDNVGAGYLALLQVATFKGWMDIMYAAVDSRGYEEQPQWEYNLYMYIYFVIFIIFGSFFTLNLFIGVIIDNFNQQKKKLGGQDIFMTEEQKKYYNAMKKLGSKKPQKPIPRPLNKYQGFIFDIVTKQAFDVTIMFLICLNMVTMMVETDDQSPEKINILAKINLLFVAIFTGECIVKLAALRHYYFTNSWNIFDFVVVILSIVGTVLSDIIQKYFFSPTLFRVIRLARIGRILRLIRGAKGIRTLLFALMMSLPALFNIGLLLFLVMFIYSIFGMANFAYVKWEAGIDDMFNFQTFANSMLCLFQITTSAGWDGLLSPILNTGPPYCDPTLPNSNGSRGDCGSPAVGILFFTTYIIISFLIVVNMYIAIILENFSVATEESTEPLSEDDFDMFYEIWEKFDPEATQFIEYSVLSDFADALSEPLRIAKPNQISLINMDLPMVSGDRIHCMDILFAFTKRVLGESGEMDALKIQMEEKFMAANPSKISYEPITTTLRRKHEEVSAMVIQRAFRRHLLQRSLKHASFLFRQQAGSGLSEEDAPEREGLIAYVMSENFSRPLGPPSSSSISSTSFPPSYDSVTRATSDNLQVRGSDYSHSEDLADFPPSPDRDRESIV
The assay can be described thus: Amplification of Nav1.5-derived voltage-dependent sodium current (Nav1.5 current), cell line stably expressing human Nav1.5, automated patch clamp. The class given is cell-based.

Setting [1] is: compound 1 μmol/L, HEK293 stably expressing human Nav1.1.
[2] abbreviates: compound 1 μmol/L, CHO-K1 stably expressing human Nav1.5.
Setting [3] is: 10 μmol/L compound, change of the area under the curve of Nav1.1 current (Test Result 1).
Setting [4] is: 10 μmol/L compound, change of the area under the curve of Nav1.5 current (Test Result 1).
[5] abbreviates: compound 3 μmol/L, HEK293 stably expressing human Nav1.1.
Setting [6] is: compound 3 μmol/L, CHO-K1 stably expressing human Nav1.5.
Where [7] appears, read: 10 μmol/L compound, change of the area under the curve of Nav1.1 current (Test Result 1), read-out: Nav1.1 current amplification rate (%).
Setting [8] is: 10 μmol/L compound, change of the area under the curve of Nav1.5 current (Test Result 1), read-out: Nav1.5 current amplification rate (%).
Where [9] appears, read: compound 3 μmol/L, HEK293 stably expressing human Nav1.1, read-out: Nav1.1 current amplification rate (%).
The mark [10] stands for this setting: compound 3 μmol/L, CHO-K1 stably expressing human Nav1.5, read-out: Nav1.5 current amplification rate (%).

For `CC1CC=C(c2ccc(=O)n(CC(=O)Nc3ccc4nccnc4c3)n2)CC1` (racemic) [Example 354], the “Nav1.1 current amplification rate (%)” value on human Nav1.1 (setting [1]) was 123%. Further, the “Nav1.5 current amplification rate (%)” value on human Nav1.5 (setting [2]) is listed as 27%.
For the compound `CC1CCN(c2ccc(=O)n(CC(=O)Nc3ccc4scnc4c3)n2)CC1` [Example 87], at human Nav1.1 (setting [3]), the “Nav1.1 current amplification rate (%)” value amounted to 255%. Further, the “Nav1.5 current amplification rate (%)” value on human Nav1.5 (setting [4]) worked out at 22%.
`CC1CC=C(c2ccc(=O)n(CC(=O)N3CCc4c(C5=CCN(C)C5)cccc43)n2)CC1` (racemic) [Example 267]: the “Nav1.1 current amplification rate (%)” value on human Nav1.1 (setting [5]) came to 231%. In addition, the “Nav1.5 current amplification rate (%)” value at human Nav1.5 (setting [6]) worked out at 79%.
`CC1CC=C(c2ccc(=O)n(CC(=O)N3CCc4c(CN5CCCC5)cccc43)n2)CC1` (racemic) [Example 271]: the “Nav1.1 current amplification rate (%)” value on human Nav1.1 (setting [5]) turned out to be 48%. Further, the “Nav1.5 current amplification rate (%)” value on human Nav1.5 (setting [6]) was 70%.
Turning to `CC1CCN(c2ccc(=O)n(CC(=O)Nc3cccc(-n4ccnc4)c3)n2)CC1` [Example 67], on human Nav1.1 (setting [3]), the “Nav1.1 current amplification rate (%)” value was 177%. The “Nav1.5 current amplification rate (%)” value on human Nav1.5 (setting [4]) is 18%.
Take `CC1CCN(c2ccc(=O)n(CC(=O)N3CCc4cc(N5CCN(C)CC5)ccc43)n2)CC1` [Example 220]: the activation at 10 µM is 50% at human Nav1.1 (setting [7]) and 5% on human Nav1.5 (setting [8]).
In the case of `O=C(Cn1nc(C2=CCCCC2)ccc1=O)N1CCc2c(-c3ccnnc3)cccc21` [Example 517], the activation at 1 µM on human Nav1.1 (compound 1 μmol/L, HEK293 stably expressing human Nav1.1, read-out: Nav1.1 current amplification rate (%)) worked out at 359%; at human Nav1.5 (compound 1 μmol/L, CHO-K1 stably expressing human Nav1.5, read-out: Nav1.5 current amplification rate (%)), 16%.
Consider `CC1CCN(c2ccc(=O)n(CC(=O)Nc3cccc(-c4cnc[nH]4)c3)n2)CC1` [Example 171], for which the figures for the activation at 3 µM at human Nav1.1 (setting [9]) and on human Nav1.5 (setting [10]) were 2% and 0%, respectively.
Consider `Cc1ccc(-c2ccc(=O)n(CC(=O)Nc3ccc4ocnc4c3)n2)cn1` [Example 452], for which the “Nav1.1 current amplification rate (%)” value at human Nav1.1 (setting [3]) was 10%. On human Nav1.5 (setting [4]), the “Nav1.5 current amplification rate (%)” value turned out to be 2%.
For the compound `CC1CC=C(c2ccc(=O)n(CC(=O)N3CCc4c(CN5CC6CC5CO6)cccc43)n2)CC1` (mixture of isomers) [Example 278], the “Nav1.1 current amplification rate (%)” value at human Nav1.1 (setting [1]) stood at 204%. Also, the “Nav1.5 current amplification rate (%)” value at human Nav1.5 (setting [2]) amounted to 27%.
As to `Cc1nc2cc(NC(=O)Cn3nc(C4=CCC(C)CC4)ccc3=O)cnc2s1` (racemic) [Example 326], the “Nav1.1 current amplification rate (%)” value at human Nav1.1 (setting [5]) was 132%. Further, on human Nav1.5 (setting [6]), the “Nav1.5 current amplification rate (%)” value was found to be 34%.
With `CC1CCN(c2ccc(=O)n(CC(=O)Nc3cncc(C#N)c3)n2)CC1` [Example 60], the “Nav1.1 current amplification rate (%)” value at human Nav1.1 (setting [3]) worked out at 57%. Moreover, at human Nav1.5 (setting [4]), the “Nav1.5 current amplification rate (%)” value was 21%.
As for `O=C(Cn1nc(C2=CCCCC2)ccc1=O)N1CCc2c(N3CCOCC3)cccc21` [Example 480], at human Nav1.1 (setting [1]), the “Nav1.1 current amplification rate (%)” value is 110%. The “Nav1.5 current amplification rate (%)” value on human Nav1.5 (setting [2]) was determined as 7%.
`COc1ncc(C2=CCN(C(=O)Cn3nc(C4=CCC(C)CC4)ccc3=O)CC2)cn1` (racemic) [Example 400]: the “Nav1.1 current amplification rate (%)” value on human Nav1.1 (setting [3]) stood at 238%. The “Nav1.5 current amplification rate (%)” value at human Nav1.5 (setting [4]) is recorded as 24%.
On to `CC1CC=C(c2ccc(=O)n(CC(=O)N3CCN(c4ccccc4)CC3)n2)CC1` (racemic) [Example 258], for which the “Nav1.1 current amplification rate (%)” value at human Nav1.1 (setting [5]) is 79%. In addition, the “Nav1.5 current amplification rate (%)” value at human Nav1.5 (setting [6]) was 4%.
In the case of `COc1cc(=O)n(CC(=O)Nc2ccc3oc(C(F)F)nc3c2)nc1C1=CCC(C)(C)CC1` [Example 493], the results for the activation at 3 µM on human Nav1.1 (setting [9]) and at human Nav1.5 (setting [10]) were 317% and 20%, respectively.
Turning to `CC1CC=C(c2ccc(=O)n(CC(=O)N3CCc4c(CO)cccc43)n2)CC1` (racemic) [Example 266], the “Nav1.1 current amplification rate (%)” value at human Nav1.1 (setting [5]) stood at 108%. Also, the “Nav1.5 current amplification rate (%)” value on human Nav1.5 (setting [6]) is recorded as 128%.
Take `CC1CC=C(c2ccc(=O)n(CC(=O)Nc3cccc4nccn34)n2)CC1` (racemic) [Example 255]: the “Nav1.1 current amplification rate (%)” value on human Nav1.1 (setting [3]) is given as 32%. For the same compound, the “Nav1.5 current amplification rate (%)” value at human Nav1.5 (setting [4]) was 15%.
Regarding `COc1cc(N2CCC(C)(C)CC2)nn(CC(=O)N2CCc3c(N4CCOCC4)cccc32)c1=O` [Example 224], the activation at 10 µM at human Nav1.1 (setting [7]) was 118%; on human Nav1.5 (setting [8]), 11%.
